Results from patent US7964624B1, “Inhibitors of serine proteases” (priority 2005, dated 2011).
pKi: −log10 of the molar value.

What follows are molecules tested against T1, full-length hepatitis C viral protein NS3•4A (Hepatitis C virus genotype 1a, UniProt P27958) (assay: biochemical). Conditions: Enzyme Assay 2 (HCV NS3 Peptide Cleavage Assay) activity, apparent Ki class.
T1 construct: hexa-histidine (N); made in house; host or cells: Sf9 insect cells (baculovirus, pVL1392)
Parameters: species or system HCV sub-type strain 1a

SMILES | pKi
COc1cc(OC)c(C2=NO[C@]3(C2)C[C@@H](C(=O)N[C@@H](CC2CC2)C(=O)C(N)=O)N(C(=O)[C@@H](NC(=O)OC(C)(C)C)C(C)(C)C)C3)cc1Cl [Compound 264] | > 7.00
CCC[C@H](NC(=O)[C@@H]1C[C@]2(CC(c3cc(Cl)c(OC)cc3OC)=NO2)CN1C(=O)[C@@H](NC(=O)CC1(C)CCOCC1)C(C)(C)C)C(=O)C(=O)NC1CC1 [Compound 286] | > 7.00
CCC[C@H](NC(=O)[C@@H]1C[C@]2(CC(c3cc(Cl)c(OC)cc3OC)=NO2)CN1C(=O)[C@@H](NC(=O)CC(C)(C)C)C(C)(C)C)C(=O)C(=O)NC1CC1 [Compound 297] | > 7.00
CCC[C@H](NC(=O)[C@@H]1C[C@]2(CC(c3cc(F)cc4c3OCOC4)=NO2)CN1C(=O)[C@@H](NC(=O)CC1CCCCC1)C(C)(C)C)C(=O)C(=O)NC1CC1 [Compound 305] | 6.30 to 7.00
CCC[C@H](NC(=O)[C@@H]1C[C@]2(CC(c3cccc(Cl)c3)=NO2)CN1C(=O)[C@@H](NC(=O)CC1CC2CCC1C2)C1(OC)CC1)C(=O)C(=O)NC1CC1 (some centres unmarked) [Compound 346] | > 7.00
CCC[C@H](NC(=O)[C@@H]1C[C@]2(CC(c3cc(Cl)c(OC)cc3OC)=NO2)CN1C(=O)[C@@H](NC(=O)CC1(C)CCOCC1)C(C)(C)C)C(=O)C(=O)N1CCC1 [Compound 356] | > 7.00
CCC[C@H](NC(=O)[C@@H]1C[C@]2(CC(c3cccc(Cl)c3)=NO2)CN1C(=O)[C@@H](NC(=O)CC1CCCCC1)C(C)(C)C)C(=O)C(=O)N1CC(OC2CCOC2)C1 (some centres unmarked) [Compound 368] | 6.30 to 7.00
CCC[C@H](NC(=O)[C@@H]1C[C@]2(CC(c3cccc(Cl)c3)=NO2)CN1C(=O)[C@@H](NC(=O)OC1CCCC1)C(C)(C)C)C(=O)C(=O)NC1CC1 [Compound 369] | > 7.00
CCC[C@H](NC(=O)[C@@H]1C[C@]2(CC(c3cccc(Cl)c3)=NO2)CN1C(=O)Cc1ccc(OC(F)(F)F)cc1)C(=O)C(=O)NC1CC1 [Compound 380] | < 6.30
CCC[C@H](NC(=O)[C@@H]1C[C@]2(CC(c3cc(C)cc(Cl)c3)=NO2)CN1C(=O)[C@@H](NC(=O)CC1CCCCC1)C(C)(C)C)C(=O)C(=O)NC1CC1 [Compound 396] | > 7.00
CCC[C@H](NC(=O)[C@@H]1C[C@]2(CC(c3cc(C)c(OCC4CC4)c(C)c3)=NO2)CN1C(=O)[C@@H](NC(=O)CC1CCCCC1)C(C)(C)C)C(=O)C(=O)NC1CC1 [Compound 406] | > 7.00
CCC[C@H](NC(=O)[C@@H]1C[C@]2(CC(c3cc(Cl)c(OC)cc3OC)=NO2)CN1C(=O)[C@@H](NC(=O)CC1CC2CCC1C2)C(C)(C)C)C(=O)C(=O)NC1CC1 (some centres unmarked) [Compound 446] | > 7.00
C[C@@H]1CC(CC(=O)N[C@H](C(=O)N2C[C@@]3(CC(c4cccc(Cl)c4)=NO3)C[C@H]2C(=O)N[C@@H](CC2CC2)C(=O)C(N)=O)C(C)(C)C)C[C@@H](C)O1 (some centres unmarked) [Compound 468] | > 7.00
CC(C)(C)[C@H](NC(=O)[C@@H]1C[C@H]1c1ccccc1)C(=O)N1C[C@@]2(CC(c3cccc(Cl)c3)=NO2)C[C@H]1C(=O)N[C@@H](CC1CC1)C(=O)C(N)=O [Compound 485] | > 7.00
CCC[C@H](NC(=O)[C@@H]1C[C@]2(CC(c3cc(C)c(OCC)c(C)c3)=NO2)CN1C(=O)[C@@H](NC(=O)CC1CCCCC1)C(C)(C)C)C(=O)C(=O)NC1CC1 [Compound 513] | > 7.00
CNC(=O)C(=O)[C@H](CC1CC1)NC(=O)[C@@H]1C[C@]2(CC(c3cccc(Cl)c3)=NO2)CN1C(=O)[C@@H](NC(=O)CC1CCCCC1)C(C)(C)C [Compound 522] | > 7.00
COc1cc(OC)c(C2=NO[C@]3(C2)C[C@@H](C(=O)N[C@@H](CC2CC2)C(=O)C(N)=O)N(C(=O)[C@@H](NC(=O)CC2(C)CCOCC2)C(C)(C)C)C3)cc1Cl [Compound 529] | > 7.00
CCC[C@H](NC(=O)[C@@H]1C[C@]2(CC(c3ccc(OCC)c(Cl)c3)=NO2)CN1C(=O)[C@@H](NC(=O)CC1CCCCC1)C(C)(C)C)C(=O)C(=O)NC1CC1 [Compound 556] | > 7.00
COc1cc(OC)c(C2=NO[C@]3(C2)C[C@@H](C(=O)N[C@@H](CC2CC2)C(=O)C(N)=O)N(C(=O)[C@@H](NC(=O)CC2CCCCC2)C(C)(C)C)C3)cc1Cl [Compound 562] | > 7.00
CCC[C@H](NC(=O)[C@@H]1C[C@]2(CC(c3cc(Cl)c(OC)cc3OC)=NO2)CN1C(=O)[C@@H](NC(=O)OC(C)(C)C)C(C)(C)C)C(=O)C(=O)N1CCC1 [Compound 581] | > 7.00
CCC[C@H](NC(=O)[C@@H]1C[C@]2(CC(c3cccc4cccnc34)=NO2)CN1C(=O)[C@@H](NC(=O)CC1CCCCCC1)C(C)(C)C)C(=O)C(=O)NC1CC1 [Compound 595] | > 7.00
CCC[C@H](NC(=O)[C@@H]1C[C@]2(CC(c3cccc4cccnc34)=NO2)CN1C(=O)[C@@H](NC(=O)CC1CCCCCC1)C(C)(C)C)C(=O)C(=O)NC [Compound 596] | 6.30 to 7.00
CCC[C@H](NC(=O)[C@@H]1C[C@]2(CC(c3ccc(N(C)C)c(Cl)c3)=NO2)CN1C(=O)[C@@H](NC(=O)CC1CCCCC1)C(C)(C)C)C(=O)C(=O)NC1CC1 [Compound 597] | 6.30 to 7.00
CCC[C@H](NC(=O)[C@@H]1C[C@]2(CC(c3cccc(NC(=O)C(Cl)Cl)c3)=NO2)CN1C(=O)[C@@H](NC(=O)CC1CCCCC1)C(C)(C)C)C(=O)C(=O)NC1CC1 [Compound 598] | 6.30 to 7.00

SMILES | pKi
CCC[C@H](NC(=O)[C@@H]1C[C@@]2(CC(c3cc(Cl)c4c(c3)CCCN4C)=NO2)CN1C(=O)[C@@H](NC(=O)OC(C)(C)C)C(C)(C)C)C(=O)C(=O)NC1CC1 [Compound 600] | 6.30 to 7.00
CCC[C@H](NC(=O)[C@@H]1C[C@]2(CC(c3cc(Cl)c4c(c3)CCCN4C)=NO2)CN1C(=O)[C@@H](NC(=O)OC(C)(C)C)C(C)(C)C)C(=O)C(=O)NC1CC1 [Compound 601] | > 7.00
CC(C)(C)[C@H](NC(=O)CC1CCCCCC1)C(=O)N1C[C@@]2(CC(c3cccc4cccnc34)=NO2)C[C@H]1C(=O)N[C@@H](CC1CC1)C(=O)C(N)=O [Compound 602] | > 7.00
CC(C)(C)[C@H](NC(=O)CC1CCCCC1)C(=O)N1C[C@@]2(CC(c3cccc4cccnc34)=NO2)C[C@H]1C(=O)N[C@@H](CC1CC1)C(=O)C(N)=O [Compound 603] | > 7.00
CCC[C@H](NC(=O)[C@@H]1C[C@]2(CC(c3cc(Cl)c(OC)cc3C)=NO2)CN1C(=O)[C@@H](NC(=O)CC1CCCCC1)C(C)(C)C)C(=O)C(=O)NC [Compound 604] | 6.30 to 7.00
CCC[C@H](NC(=O)[C@@H]1C[C@]2(CC(c3cc(Cl)c(OC)cc3C)=NO2)CN1C(=O)[C@@H](NC(=O)CC1CCCCCC1)C(C)(C)C)C(=O)C(=O)NC1CC1 [Compound 606] | 6.30 to 7.00
CCC[C@H](NC(=O)[C@@H]1C[C@]2(CC(c3cc(Cl)c(OC)cc3C)=NO2)CN1C(=O)[C@@H](NC(=O)CC(C)(C)C)C(C)(C)C)C(=O)C(=O)NC [Compound 607] | 6.30 to 7.00
CCC[C@H](NC(=O)[C@@H]1C[C@]2(CC(c3cc(Cl)c(OC)cc3C)=NO2)CN1C(=O)[C@@H](NC(=O)CC(C)(C)C)C(C)(C)C)C(=O)C(=O)NC1CC1 [Compound 608] | 6.30 to 7.00
CCC[C@H](NC(=O)[C@@H]1C[C@]2(CC(c3ccc(F)c(Cl)c3)=NO2)CN1C(=O)[C@@H](NC(=O)CC1CCCCC1)C(C)(C)C)C(=O)C(=O)NC [Compound 609] | > 7.00
CCC[C@H](NC(=O)[C@@H]1C[C@]2(CC(c3ccc(F)c(Cl)c3)=NO2)CN1C(=O)[C@@H](NC(=O)CC1CCCCCC1)C(C)(C)C)C(=O)C(=O)NC [Compound 610] | > 7.00
CCC[C@H](NC(=O)[C@@H]1C[C@]2(CC(c3ccc(F)c(Cl)c3)=NO2)CN1C(=O)[C@@H](NC(=O)CC1CCCCCC1)C(C)(C)C)C(=O)C(=O)NC1CC1 [Compound 611] | > 7.00
CCC[C@H](NC(=O)[C@@H]1C[C@]2(CC(c3ccc(F)c(Cl)c3)=NO2)CN1C(=O)[C@@H](NC(=O)CC(C)(C)C)C(C)(C)C)C(=O)C(=O)NC [Compound 612] | > 7.00
CCC[C@H](NC(=O)[C@@H]1C[C@]2(CC(c3ccc(F)c(Cl)c3)=NO2)CN1C(=O)[C@@H](NC(=O)CC(C)(C)C)C(C)(C)C)C(=O)C(=O)NC1CC1 [Compound 613] | > 7.00
CCC[C@H](NC(=O)[C@@H]1C[C@]2(CC(c3cc(C)c(OC)cc3OC)=NO2)CN1C(=O)[C@@H](NC(=O)CC1CCCCC1)C(C)(C)C)C(=O)C(=O)NC1CC1 [Compound 614] | > 7.00
CCC[C@H](NC(=O)[C@@H]1C[C@]2(CC(c3cc(C)c(OC)cc3C)=NO2)CN1C(=O)[C@@H](NC(=O)CC1CCCCC1)C(C)(C)C)C(=O)C(=O)NC1CC1 [Compound 615] | 6.30 to 7.00
CNC(=O)C(=O)[C@H](CC1CC1)NC(=O)[C@@H]1C[C@]2(CC(c3cc(Cl)c(OC)cc3OC)=NO2)CN1C(=O)[C@@H](NC(=O)CC1CCCCCC1)C(C)(C)C [Compound 616] | > 7.00
CNC(=O)C(=O)[C@H](CC1CC1)NC(=O)[C@@H]1C[C@]2(CC(c3cccc(Cl)c3)=NO2)CN1C(=O)[C@@H](NC(=O)CC1CCCCC1)C1(OC)CC1 [Compound 617] | 6.30 to 7.00
CCC[C@H](NC(=O)[C@@H]1C[C@]2(CC(c3cc(Cl)c(OC)cc3OC)=NO2)CN1C(=O)[C@@H](NC(=O)CC1CCCCC1)C(C)(C)C)C(=O)C(N)=O [Compound 618] | > 7.00
CCC[C@H](NC(=O)[C@@H]1C[C@]2(CC(c3cccc4cccnc34)=NO2)CN1C(=O)[C@@H](NC(=O)OC(C)(C)C)C(C)(C)C)C(=O)C(=O)NC1CC1 [Compound 619] | > 7.00
CCC[C@H](NC(=O)[C@@H]1C[C@]2(CC(c3cc(Cl)c(OC)cc3C)=NO2)CN1C(=O)[C@@H](NC(=O)CC1CCCCC1)C(C)(C)C)C(=O)C(N)=O [Compound 620] | > 7.00
CCC[C@H](NC(=O)[C@@H]1C[C@]2(CC(c3ccc(F)c(Cl)c3)=NO2)CN1C(=O)[C@@H](NC(=O)CC1CCCCC1)C(C)(C)C)C(=O)C(N)=O [Compound 621] | > 7.00
CCC[C@H](NC(=O)[C@@H]1C[C@]2(CC(c3cc(Cl)c(OC)cc3C)=NO2)CN1C(=O)[C@@H](NC(=O)CC1CCCCCC1)C(C)(C)C)C(=O)C(N)=O [Compound 622] | 6.30 to 7.00
CCC[C@H](NC(=O)[C@@H]1C[C@]2(CC(c3ccc(F)c(Cl)c3)=NO2)CN1C(=O)[C@@H](NC(=O)CC1CCCCCC1)C(C)(C)C)C(=O)C(N)=O [Compound 623] | > 7.00
